Here are results for 19 compounds from US20250230147A1, “LACTAMS AS CBL-B INHIBITORS” (Genentech, Inc., priority 2021, published 2025).

Structures are written as SMILES. Structures can show the parent of a compound that is named as a salt.

The target in assay [1] is c-Cbl (Homo sapiens (Human), UniProt P22681). Briefly: C-Cbl LCK Ub TR-FRET assay (c-cbl Lck HTRF). It counts as biochemical. The settings on record: for (fold-selectivity): C-cbl Lck HTRF IC50 relative to Cbl-b Lck HTRF IC50. An outline of the steps:
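Signal is read once the detection mix has stood 20 min at ambient temperature. Curves are anchored by DMSO as maximum and by omission of LCK as minimum.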

Assay [2] concerns the target Cbl-b (Homo sapiens (Human), UniProt Q13191). Briefly: Cbl-b LCK Ub TR-FRET assay (Cbl-b Lck HTRF). It counts as biochemical. In outline: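 Biotin-Cbl-b preincubated with compound (10-point 3-fold series) 60 min, then His-LCK with 1 mM ATP (2× mixture) added for 90 min at room temperature. Ubiquitination detected by TR-FRET using HA-ubiquitin/UBE2D2 adduct, anti-HA-D2 and streptavidin-Eu; IC50 normalised to no-LCK and DMSO controls.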

Chain of Cbl-b (Q13191 40-426): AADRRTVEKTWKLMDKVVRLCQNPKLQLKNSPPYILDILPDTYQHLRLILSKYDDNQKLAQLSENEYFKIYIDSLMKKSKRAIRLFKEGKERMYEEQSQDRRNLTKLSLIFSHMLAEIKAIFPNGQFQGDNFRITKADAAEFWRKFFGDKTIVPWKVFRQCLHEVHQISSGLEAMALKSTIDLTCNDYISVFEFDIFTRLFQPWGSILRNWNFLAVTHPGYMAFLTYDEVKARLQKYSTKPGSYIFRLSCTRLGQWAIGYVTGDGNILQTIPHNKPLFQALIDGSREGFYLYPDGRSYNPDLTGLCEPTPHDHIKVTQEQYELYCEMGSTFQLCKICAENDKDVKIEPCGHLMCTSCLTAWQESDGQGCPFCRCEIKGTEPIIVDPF
Chain of c-Cbl (P22681 47-435): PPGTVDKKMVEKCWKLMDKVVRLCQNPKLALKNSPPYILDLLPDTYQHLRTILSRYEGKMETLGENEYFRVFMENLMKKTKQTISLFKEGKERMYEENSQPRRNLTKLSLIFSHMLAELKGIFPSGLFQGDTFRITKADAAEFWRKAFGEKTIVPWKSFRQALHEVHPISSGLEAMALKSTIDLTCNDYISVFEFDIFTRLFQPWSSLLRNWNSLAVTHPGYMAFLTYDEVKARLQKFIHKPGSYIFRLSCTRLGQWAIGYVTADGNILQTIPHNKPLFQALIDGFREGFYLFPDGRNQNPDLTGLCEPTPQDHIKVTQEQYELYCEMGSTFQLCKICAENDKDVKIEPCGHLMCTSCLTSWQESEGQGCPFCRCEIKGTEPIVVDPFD

By IC50 is commonly meant the point on the concentration scale where inhibition reaches its midpoint. As for `C[C@H](NC1(C)CCC1)c1cc2c(c(C(F)(F)F)c1)CN(c1cccc(C3([C@@H](F)c4nncn4C)COC3)c1)C2=O` [Compound 248, 2-(3-(3-((R)-fluoro(4-methyl-4H-1,2,4-triazol-3-yl)methyl)oxetan-3-yl)phenyl)-6-((S)-1-((1-methylcyclobutyl)amino)ethyl)-4-(trifluoromethyl)isoindolin-1-one], in assay [1], half-maximal inhibition (IC50) required 0.0052 µM and the “(fold-selectivity)” value is given as “(0.79x)”. Half-maximal inhibition in assay [2] (IC50) was put at 0.0067 µM.
The corresponding values for `CC(C)[C@@H]1CNCCN1Cc1cc2c(c(C(F)(F)F)c1)CN(c1cccc(C3([C@@H](F)c4nncn4C)COC3)c1)C2=O` [Compound 94, 2-(3-(3((R)-fluoro(4-methyl-4H-1,2,4-triazol-3-yl)methyl)oxetan-3-yl)phenyl)-6-(((R)-2-isopropylpiperazin-1-yl)methyl)-4-(trifluoromethyl)isoindolin-1-one] are 0.2 µM, 1.1x and 0.18 µM.
For the compound `Cn1cnnc1CC1(c2cc(NC3CCCC3)nc(N3Cc4c(cc(CNC5(C)CCC5)cc4C(F)(F)F)C3=O)c2)COC1` [Compound 298, 2-(6-(cyclopentylamino)-4-(3-((4-methyl-4H-1,2,4-triazol-3-yl)methyl)oxetan-3-yl)pyridin-2-yl)-6-(((1-methylcyclobutyl)amino)methyl)-4-(trifluoromethyl)isoindolin-1-one], in assay [1], it took 0.013 µM to reach half-maximal inhibition (IC50) and the “(fold-selectivity)” value was “(1.3x)”. This compound displayed an IC50 in assay [2] of 0.0099 µM.
Consider `Cn1cnnc1CC1(c2cccc(N3Cc4c(cc(CNCC5COC5)cc4C(F)(F)F)C3=O)c2)CC(F)(F)C1` [Compound 368, 2-(3-(3,3-difluoro-1-((4-methyl-4H-1,2,4-triazol-3-yl)methyl)cyclobutyl)phenyl)-6-(((oxetan-3-ylmethyl)amino)methyl)-4-(trifluoromethyl)isoindolin-1-one], for which, in assay [1], the IC50 was found to be 0.014 µM and the “(fold-selectivity)” value is given as “(0.72x)”. In assay [2], it took 0.02 µM to reach half-maximal inhibition (IC50).
Taken in the same sequence, the figures for `CC(C)[C@H]1CN(C)CCN1Cc1cc2c(c(C(F)(F)F)c1)CN(c1cccc(C3([C@H](F)c4n[nH]cc4C(F)(F)F)COC3)c1)C2=O` [Compound 376, 2-(3-(3-((S)-fluoro(4-(trifluoromethyl)-1H-pyrazol-3-yl)methyl)oxetan-3-yl)phenyl)-6-(((S)-2-isopropyl-4-methylpiperazin-1-yl)methyl)-4-(trifluoromethyl)isoindolin-1-one] were 20 µM, “(1.0x)” and 20 µM.
Take `Cn1cnnc1CC1(c2cccc(N3Cc4c(cc(CNCC5(C)CC5)cc4C(F)(F)F)C3=O)c2)CC(F)(F)C1` [Compound 352, 2-(3-(3,3-difluoro-1-((4-methy-4H-1,2,4-triazol-3-yl)methyl)cyclobutyl)phenyl)-6-((((1-methylcyclopropyl)methyl)amino)methyl)-4-(trifluoromethyl)isoindolin-1-one formate]: the results for the IC50 in assay [1] and in assay [2] were 0.0067 µM and 0.012 µM, respectively.
As to `Cn1cnnc1CC1(c2cccc(N3Cc4c(cc(CN5CCN[C@H](C6CC6)C5)cc4C(F)(F)F)C3=O)c2)CC(F)(F)C1` [Compound 430, (R)-6-((3-cyclopropylpiperazin-1-yl)methyl)-2-(3-(3,3-difluoro-1-((4-methyl-4H-1,2,4-triazol-3-yl)methyl)cyclobutyl)phenyl)-4-(trifluoromethyl)isoindolin-1-one], in assay [1], inhibition was half-maximal at 0.035 µM (IC50) and the “(fold-selectivity)” value is listed as “(0.80x)”. This compound gave an IC50 in assay [2] of 0.043 µM.
Taken in the same sequence, the figures for `Cn1cnnc1CC1(c2cc(NC3CCCC3)nc(N3Cc4c(cc(CNC5(C)CCC5)cc4C(F)(F)F)C3=O)c2)CCC1` [Compound 295, 2-(6-(cyclopentylamino)-4-(1-((4-methyl-4H-1,2,4-triazol-3-yl)methyl)cyclobutyl)pyridin-2-yl)-6-(((1-methylcyclobutyl)amino)methyl)-4-(trifluoromethyl)isoindolin-1-one] were 0.033 µM, “(0.75x)” and 0.044 µM.
The corresponding values for `CCSc1cc(C2(Cc3nncn3C)CCC2)cc(N2Cc3c(cc(CNC4(C)CCC4)cc3C(F)(F)F)C2=O)n1` [Compound 286, 2-(6-(ethylthio)-4-(1-((4-methyl-4H-1,2,4-triazol-3-yl)methyl)cyclobutyl)pyridin-2-yl)-6-(((1-methylcyclobutyl)amino)methyl)-4-(trifluoromethyl)isoindolin-1-one] are 0.0049 µM, “(0.73x)” and 0.0068 µM.
Take `Cn1cnnc1CC1(c2cccc(N3Cc4c(cc(CN)cc4C(F)(F)F)C3=O)c2)COC1` [Compound 66, 6-(aminomethyl)-2-(3-(3-((4-methyl-4H-1,2,4-triazol-3-yl)methyl)oxetan-3-yl)phenyl)-4-(trifluoromethyl)isoindolin-1-one formate]: the IC50 turned out to be 0.1 µM in assay [1] and 0.076 µM in assay [2].
For `COc1cc(C2(Cc3nncn3C)CCC2)cc(N2Cc3c(cc(CN4CCN(C)C[C@@H]4C(C)C)cc3C(F)(F)F)C2=O)n1` [Compound 365, (S)-6-((2-isopropyl-4-methylpiperazin-1-yl)methyl)-2-(6-methoxy-4-(1-((4-methyl-4H-1,2,4-triazol-3-yl)methyl)cyclobutyl)pyridin-2-yl)-4-(trifluoromethyl)isoindolin-1-one], in assay [1], the midpoint of inhibition, the IC50, lay at 0.0067 µM and the “(fold-selectivity)” value is “(0.57x)”. 0.012 µM corresponded to half-maximal inhibition in assay [2] (IC50).
Taken in the same sequence, the figures for `Cn1cnnc1[C@@H](F)C1(c2cccc(N3Cc4c(cc(CN5CCOCC5)cc4C(F)(F)F)C3=O)c2)COC1` [Compound 89, (S)-2-(3-(3-(fluoro(4-methyl-4H-1,2,4-triazol-3-yl)methyl)oxetan-3-yl)phenyl)-6-(morpholinomethyl)-4-(trifluoromethyl)isoindolin-1-one] were 0.72 µM, 2.3x and 0.31 µM.
Taken in the same sequence, the figures for `Cn1cnnc1[C@@H](F)C1(c2cccc(N3Cc4c(cc(CN5CC(C)(CO)C5)cc4C(F)(F)F)C3=O)c2)COC1` [Compound 75, (S)-2-(3-(3-(fluoro(4-methyl-4H-1,2,4-triazol-3-yl)methyl)oxetan-3-yl)phenyl)-6((3-(hydroxymethyl)-3-methylazetidin-1-yl)methyl)-4-(trifluoromethyl)isoindolin-1-one] were 0.58 µM, 2.3x and 0.25 µM.
`COCC1(F)CN(Cc2cc3c(c(C(F)(F)F)c2)CN(c2cccc(C4([C@H](F)c5nncn5C)COC4)c2)C3=O)C1` [Compound 136, (S)-2-(3-(3-(fluoro(4-methyl-4H-1,2,4-triazol-3-yl)methyl)oxetan-3-yl)phenyl)-6-((3-fluoro-3-(methoxymethyl)azetidin-1-yl)methyl)-4-(trifluoromethyl)isoindolin-1-one]: in assay [1], it took 0.56 µM to reach half-maximal inhibition (IC50) and the “(fold-selectivity)” value is listed as 2.0x. Also, the IC50 in assay [2] was 0.28 µM.
For the compound `Cn1cnnc1[C@@H](F)C1(c2cccc(N3Cc4c(cc(CN5CC6CC6C5)cc4C(F)(F)F)C3=O)c2)COC1` (stereo partly drawn) [Compound 85, 6-((3-azabicyclo[3.1.0]hexan-3 yl)methyl)-2-(3-(3-((S)-fluoro(4-methyl-4H-1,2,4-triazol-3-yl)methyl)oxetan-3-yl)phenyl)-4-(trifluoromethyl)isoindolin-1-one], in assay [1], the half-maximal inhibitory concentration (IC50) turned out to be 0.37 µM and the “(fold-selectivity)” value worked out at 2.0x. In assay [2], this compound displayed an IC50 of 0.18 µM.
As to `CC(C)[C@H]1CN(C)CCN1Cc1cc2c(c(C(F)(F)F)c1)CN(c1cccc(C3([C@H](F)c4nncn4C4CC4)COC3)c1)C2=O` [Compound 487, 2-(3-(3-((S)-(4-cyclopropyl-4H-1,2,4-triazol-3-yl)fluoromethyl)oxetan-3-yl)phenyl)-6-(((S)-2-isopropyl-4-methylpiperazin-1-yl)methyl)-4-(trifluoromethyl)isoindolin-1-one], the half-inhibitory concentration (IC50) amounted to 2.7 µM in assay [1] and 1.8 µM in assay [2]. In addition, the “(fold-selectivity)” value in assay [1] was “(1.5x)”.
The corresponding values for `Cn1cnnc1[C@H](F)C1(c2cccc(N3Cc4c(cc(CN5CC(S(C)(=O)=O)C5)cc4C(F)(F)F)C3=O)c2)COC1` [Compound 163, (R)-2-(3-(3-(fluoro(4-methyl-4H-1,2,4-triazol-3-yl)methyl)oxetan-3-yl)phenyl)-6-((3-(methylsulfonyl)azetidin-1-yl)methyl)-4-(trifluoromethyl)isoindolin-1-one] are 0.24 µM, 0.13 µM and 1.9x.
Taken in the same sequence, the figures for `Cn1cnnc1[C@@H](F)C1(c2cccc(N3Cc4c(cc(CN5CCC5)cc4C(F)(F)F)C3=O)c2)CC(F)(F)C1` [Compound 398, (S)-6-(azetidin-1-ylmethyl)-2-(3-(3,3-difluoro-1-(fluoro(4-methyl-4H-1,2,4-triazol-3-yl)methyl)cyclobutyl)phenyl)-4-(trifluoromethyl)isoindolin-1-one] were 0.18 µM, 0.14 µM and “(1.3x)”.
The corresponding values for `CC(C)[C@H]1CN(C)CCN1Cc1cc2c(c(C(F)(F)F)c1)CN(c1cccc(C3([C@H](F)c4nncn4-c4ccccc4)COC3)c1)C2=O` [Compound 260, 2-(3-(3-((S)-fluoro(4-phenyl-4H-1,2,4-triazol-3-yl)methyl)oxetan-3-yl)phenyl)-6-(((S)-2-isopropyl-4-methylpiperazin-1-yl)methyl)-4-(trifluoromethyl)isoindolin-1-one] are 8.3 µM, 5.6 µM and “(1.5x)”.
